Measurements reported in US9017719B2, “Injectable drug carrier comprising layered double hydroxide” (Nanohybrid Co., Ltd., priority 2005, dated 2015).

Assay: In vivo toxicity test of LDH-MTX hybrid and MTX, intraperitoneal, death rate
Conditions: mouse, ip, Balb/c mice, dosed weekly for three weeks
Method: Like in the in vivo toxicity test of LDH of Example 2, small animal models, Balb/c mice (6-7 weeks old) were purchased and managed in cages (5 mice/cage). MTX was administered intraperitoneally to 10 mice at each concentration of 50, 75, and 100 mg/kg and the LDH-MTX hybrid synthesized in Example 3 was administered intraperitoneally to 10 mice at each concentration of 3, 6, 12.5, 25, 50, 75, and 100 mg/kg. The body weight of each mouse was measured every week for three weeks and a dosage of drug adjusted to the newly measured weight was administered. The body weights of the mice died during the test were excluded from statistical analysis. A death rate with respect to the concentration of MTX is represented by total number of mice survived in FIG. 7a and a death rate with respect to the concentration of the LDH-MTX hybrid is represented by the total number of mice survived in FIG. 7b. […] That is, the lethal dose of the LDH-MTX hybrid was equal to ⅓ of that of MTX.

CN(Cc1cnc2nc(N)nc(N)c2n1)c1ccc(C(=O)N[C@@H](CCC(=O)O)C(=O)O)cc1 [MTX, methotrexate]
LD50 at 3 weeks: 75 mg/kg
